Measurements as given in article PMC12735951, “A Bioorthogonal TCO–Tetrazine-Based Pretargeted PET/NIRF Platform Enabling High-Contrast Tumor Imaging” (Pharmaceuticals, 2025).

Key:
[1] = Partition coefficient (log p), n-octanol/PBS; type: physicochemical
Experimental: (§1) ^68GaCl3 (5 mL, 20 mCi) and DOTA-Tz (50 μg) were mixed in a reaction vial. The pH was adjusted to 4.0–4.5 by adding 1 M sodium acetate, and the mixture was heated at 95 °C for 15 min without further purification. Radiochemical purity was confirmed by RP-HPLC. In vitro stability of ^68Ga-DOTA-Tz was assessed by incubating aliquots in 50% FBS or 50% PBS at 37 °C for 30 min, 1 h, 2 h, and 4 h. The partition coefficient (log p) was determined by mixing 1 mL of n-octanol with 1 mL of PBS containing the tracer, vortexing, and centrifuging at 3000 rpm for 5 min. Samples (0.1 mL) from both the organic and aqueous phases were withdrawn, and their radioactivity was measured using a γ-counter (PerkinElmer Wizard, Shelton, CT, USA).

[2] = system: HeLa tumors; assay: Pretargeting biodistribution (γ-counter) of DZ-Lys-TCO and ^68Ga-DOTA-H-Tz; type: in vivo, mice; details: DZ-Lys-TCO 48 h pretargeting interval
Experimental: To assess the in vivo biodistribution of the pretargeting system, female BALB/c nude mice bearing HeLa tumors (n = 3) were first injected intravenously with DZ-TCO. After 48 h, 0.74 MBq of ^68Ga-DOTA-H-Tz was administered via the tail vein. At 30, 60, and 120 min post-injection, mice were euthanized, and tissues including blood, tumor, liver, kidney, spleen, heart, lung, muscle, stomach, intestines, brain, and bone were excised, weighed, and counted using a γ-counter (Wizard2, PerkinElmer, Shelton, CT, USA). Radiotracer uptake was expressed as the percentage of injected dose per gram of tissue (%ID/g). Tumor-to-organ uptake ratios were calculated accordingly.

[3] = system: subcutaneous tumors; assay: Pretargeted PET imaging with DZ-Lys-TCO and ^68Ga-DOTA-H-Tz at different intervals; type: in vivo, mice; details: DZ-Lys-TCO pre-injected
Experimental: To evaluate in vivo tumor targeting and bioorthogonal reaction kinetics, female BALB/c nude mice bearing subcutaneous tumors were intravenously injected with […] of each DZ-TCO precursor in phosphate-buffered saline (PBS). At predefined intervals (24, 48, or 72 h post-injection), […] of ^68Ga-labeled tetrazine probe (^68Ga-DOTA-Me-Tz or ^68Ga-DOTA-H-Tz; 3.7 MBq in PBS) was administered via the tail vein. PET imaging was performed using the IRIS system (Inviscan, Paris, France) at 30 min, 1 h, and 2 h post-injection under 2% isoflurane anesthesia. Image reconstruction and quantitative analysis were conducted using Inveon Research Workplace and OsiriX MD software version 10.0.4. Regions of interest (ROIs) were manually defined over tumors and major organs, and radiotracer uptake was expressed as the percentage of the injected dose per gram of tissue (%ID/g).

[4] = In vitro stability in 50% PBS; type: physicochemical; details: 37 °C
Experimental: as §1

[5] = In vitro stability in 50% fetal bovine serum (FBS); type: in vitro ADME
Experimental: as §1

Work on `O=C([O-])CN1CCN(CC(=O)[O-])CCN(CC(=O)NCCCCNC(=O)Cc2ccc(-c3nncnn3)cc2)CCN(CC(=O)[O-])CC1.[68Ga+3]` [^68Ga-DOTA-H-Tz] yielded a log p [1] of −3.57 ± 0.21, a Blood uptake ([2]; 30 min) of 2.96 ± 0.11 %ID/g and a Bone uptake ([2]; 30 min) of 0.64 ± 0.27 %ID/g. The Brain uptake ([2]; 30 min) was 0.37 ± 0.30 %ID/g, the Heart uptake ([2]; 30 min) was 1.34 ± 0.53 %ID/g and the Intestine uptake ([2]; 30 min) was 1.97 ± 0.38 %ID/g. For the same compound, the Kidney uptake ([2]; 30 min) was 10.71 ± 1.34 %ID/g, the Lung uptake ([2]; 30 min) was 2.38 ± 1.41 %ID/g and the Muscle uptake ([2]; 30 min) was 0.97 ± 0.21 %ID/g. For the same compound, the Spleen uptake ([2]; 30 min) was 1.03 ± 0.08 %ID/g, the Stomach uptake ([2]; 30 min) was 1.16 ± 0.13 %ID/g and the “T/B (tumor-to-blood ratio)” value ([2]; 30 min) was 1.18 ± 0.55. The “T/K (tumor-to-kidney ratio)” value ([2]; 30 min) was 0.32 ± 0.14, the “T/L (tumor-to-liver ratio)” value ([2]; 30 min) was 1.18 ± 0.28 and the liver uptake ([2]; 30 min) was 2.95 ± 1.04 %ID/g. The tumor uptake ([2]; 30 min) was 3.53 ± 1.76 %ID/g, the Blood uptake ([2]; 60 min) was 1.05 ± 0.29 %ID/g and the Bone uptake ([2]; 60 min) was 0.52 ± 0.20 %ID/g. For the same compound, the Brain uptake ([2]; 60 min) was 0.10 ± 0.03 %ID/g, the Heart uptake ([2]; 60 min) was 0.78 ± 0.58 %ID/g and the Intestine uptake ([2]; 60 min) was 0.59 ± 0.08 %ID/g. For the same compound, the Kidney uptake ([2]; 60 min) was 6.54 ± 1.95 %ID/g, the Lung uptake ([2]; 60 min) was 0.50 ± 0.18 %ID/g and the Muscle uptake ([2]; 60 min) was 0.38 ± 0.15 %ID/g. The Spleen uptake ([2]; 60 min) was 0.91 ± 0.70 %ID/g, the Stomach uptake ([2]; 60 min) was 0.83 ± 0.30 %ID/g and the “T/B (tumor-to-blood ratio)” value ([2]; 60 min) was 1.63 ± 0.53. For the same compound, the “T/K (tumor-to-kidney ratio)” value ([2]; 60 min) was 0.25 ± 0.05, the “T/L (tumor-to-liver ratio)” value ([2]; 60 min) was 1.08 ± 0.27 and the “T/M (tumor-to-muscle ratio)” value ([2]; 60 min) was 5.11 ± 3.51. It also gave a liver uptake ([2]; 60 min) of 1.56 ± 0.49 %ID/g, a tumor uptake ([2]; 60 min) of 1.72 ± 0.87 %ID/g and a Blood uptake ([2]; 120 min) of 0.64 ± 0.18 %ID/g. The Bone uptake ([2]; 120 min) was 0.08 ± 0.03 %ID/g, the Brain uptake ([2]; 120 min) was 0.03 ± 0.01 %ID/g and the Heart uptake ([2]; 120 min) was 0.17 ± 0.03 %ID/g. The Intestine uptake ([2]; 120 min) was 0.11 ± 0.08 %ID/g, the Kidney uptake ([2]; 120 min) was 3.28 ± 1.00 %ID/g and the Lung uptake ([2]; 120 min) was 0.14 ± 0.02 %ID/g. It also gave a Muscle uptake ([2]; 120 min) of 0.07 ± 0.02 %ID/g, a Spleen uptake ([2]; 120 min) of 0.24 ± 0.06 %ID/g and a Stomach uptake ([2]; 120 min) of 0.10 ± 0.05 %ID/g. For the same compound, the “T/B (tumor-to-blood ratio)” value ([2]; 120 min) was 1.39 ± 0.74, the “T/K (tumor-to-kidney ratio)” value ([2]; 120 min) was 0.26 ± 0.10 and the “T/L (tumor-to-liver ratio)” value ([2]; 120 min) was 1.07 ± 0.05. For the same compound, the “T/M (tumor-to-muscle ratio)” value ([2]; 120 min) was 10.92 ± 0.31, the liver uptake ([2]; 120 min) was 0.76 ± 0.23 %ID/g and the tumor uptake ([2]; 120 min) was 0.82 ± 0.28 %ID/g. The “Bone uptake, consistently” value ([2]; all time points) was under 0.70 %ID/g, the “maximum T/M ratio” value ([3]; 24 h interval) was 5.31 ± 0.48 and the liver uptake ([3]; 24 h interval, 30 min p.i.) was 2.61 ± 0.53 %ID/g. For the same compound, the tumor uptake ([3]; 24 h interval, 30 min p.i.) was 2.64 ± 0.73 %ID/g, the T/L ratio ([3]; 24 h interval, 60 min p.i.) was 1.01 ± 0.08 and the liver uptake ([3]; 24 h interval, 60 min p.i.) was 1.15 ± 0.16 %ID/g. The tumor uptake ([3]; 24 h interval, 60 min p.i.) was 1.18 ± 0.25 %ID/g, the liver uptake ([3]; 24 h interval, 120 min p.i.) was 0.91 ± 0.16 %ID/g and the tumor uptake ([3]; 24 h interval, 120 min p.i.) was 0.79 ± 0.14 %ID/g. The T/L ratio ([3]; 48 h interval) was 1.35 ± 0.26, the “T/M ratio (highest)” value ([3]; 48 h interval) was 8.30 ± 3.39 and the tumor uptake ([3]; 48 h interval, 30 min p.i.) was 3.24 ± 0.95 %ID/g. The tumor uptake ([3]; 48 h interval, 120 min p.i.) was 0.96 ± 0.29 %ID/g, the “maximum T/M ratio” value ([3]; 72 h interval) was 5.84 ± 1.49 and the liver uptake ([3]; 72 h interval, 30 min p.i.) was 2.32 ± 0.79 %ID/g. It also gave a tumor uptake ([3]; 72 h interval, 30 min p.i.) of 1.89 ± 0.57 %ID/g, a T/L ratio ([3]; 72 h interval, 60 min p.i.) of 0.98 ± 0.10 and a liver uptake ([3]; 72 h interval, 60 min p.i.) of 1.40 ± 0.43 %ID/g. For the same compound, the tumor uptake ([3]; 72 h interval, 60 min p.i.) was 1.35 ± 0.31 %ID/g, the liver uptake ([3]; 72 h interval, 120 min p.i.) was 0.97 ± 0.05 %ID/g and the tumor uptake ([3]; 72 h interval, 120 min p.i.) was 0.91 ± 0.31 %ID/g. The “radiochemical purity in PBS after 4 h” value [4] was 98.76 ± 0.52%, the “radiochemical purity in FBS at 4 h” value ([5]; 50% FBS, 37 °C) was 98.53 ± 0.58% and the “radiochemical stability after 4 h” value ([5]; PBS and serum) was over 85%.
